Test results published in US11021493B2, “1,4-thiazine dioxide and 1,2,4-thiadiazine dioxide derivatives as beta-secretase inhibitors and methods of use” (AMGEN INC., priority 2016, dated 2021).
Structures can show the parent of a compound that is named as a salt.

Legend:
[1] = biological target: Cathepsin D (CatD) (Homo sapiens (Human), UniProt P07339); experiment: In vitro enzymatic Cathepsin D (CatD) FRET assay; type: biochemical; conditions: read-out: Cat D Enzyme IC50
[2] = biological target: human recombinant BACE2 (Homo sapiens (Human), UniProt Q9Y5Z0); experiment: In vitro enzymatic BACE2 FRET assay; type: biochemical; conditions: read-out: BACE2 Enzyme IC50
[3] = biological target: T1, BACE1 (Homo sapiens (Human), UniProt P56817); experiment: In vitro BACE1 cell-based assay (Aβ40 in conditioned medium of cells stably expressing APP, HTRF)
Target sequence in this assay (P56817 46-501, species assumed): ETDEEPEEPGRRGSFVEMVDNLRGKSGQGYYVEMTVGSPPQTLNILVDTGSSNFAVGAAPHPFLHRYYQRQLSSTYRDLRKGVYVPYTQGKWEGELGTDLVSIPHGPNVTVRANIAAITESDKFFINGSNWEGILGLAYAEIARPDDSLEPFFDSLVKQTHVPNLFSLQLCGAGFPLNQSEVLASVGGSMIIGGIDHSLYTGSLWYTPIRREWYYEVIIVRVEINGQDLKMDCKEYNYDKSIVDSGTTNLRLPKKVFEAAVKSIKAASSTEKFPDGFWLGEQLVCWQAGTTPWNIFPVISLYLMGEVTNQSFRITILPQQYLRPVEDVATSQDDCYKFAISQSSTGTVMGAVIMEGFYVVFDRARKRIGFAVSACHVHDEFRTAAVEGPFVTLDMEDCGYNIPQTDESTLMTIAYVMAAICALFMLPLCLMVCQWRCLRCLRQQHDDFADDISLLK

[4] = biological target: T1, BACE1; experiment: In vitro enzymatic BACE1 FRET assay; type: biochemical; conditions: read-out: BACE1 Enzyme IC50
Target sequence in this assay (P56817 46-501): as the sequence (P56817 46-501, species assumed) above

[5] = Aβ40 in conditioned media after 24 h incubation

Chain of Cathepsin D (CatD) (P07339 65-412, species assumed): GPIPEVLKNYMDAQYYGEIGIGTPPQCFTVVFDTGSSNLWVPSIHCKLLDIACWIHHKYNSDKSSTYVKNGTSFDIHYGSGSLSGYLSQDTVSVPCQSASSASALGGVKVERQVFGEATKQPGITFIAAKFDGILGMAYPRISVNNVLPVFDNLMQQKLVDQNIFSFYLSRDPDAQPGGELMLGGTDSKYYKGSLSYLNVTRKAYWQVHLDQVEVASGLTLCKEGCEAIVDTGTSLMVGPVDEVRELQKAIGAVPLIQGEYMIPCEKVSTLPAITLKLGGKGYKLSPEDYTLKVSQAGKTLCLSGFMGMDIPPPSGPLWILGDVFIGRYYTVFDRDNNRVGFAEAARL
Chain of human recombinant BACE2 (Q9Y5Z0 63-518): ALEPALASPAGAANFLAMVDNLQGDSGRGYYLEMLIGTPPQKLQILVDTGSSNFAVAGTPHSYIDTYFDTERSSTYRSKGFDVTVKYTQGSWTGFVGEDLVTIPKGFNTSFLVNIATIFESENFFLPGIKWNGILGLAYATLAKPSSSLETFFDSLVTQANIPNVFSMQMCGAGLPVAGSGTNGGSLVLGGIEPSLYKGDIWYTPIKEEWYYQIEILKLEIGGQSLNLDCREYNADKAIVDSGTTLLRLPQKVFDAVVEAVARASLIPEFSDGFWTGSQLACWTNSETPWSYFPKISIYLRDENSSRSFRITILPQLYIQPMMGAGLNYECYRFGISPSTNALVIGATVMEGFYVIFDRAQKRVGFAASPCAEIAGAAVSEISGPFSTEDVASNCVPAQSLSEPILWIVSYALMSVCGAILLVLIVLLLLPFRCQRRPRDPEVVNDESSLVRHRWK

Compound | IC50 [1] [nM] | IC50 [2] [nM] | IC50 [3, 5] [nM] | IC50 [4] [nM] | IC50 [3] [nM]
CCOC(=O)COc1cnc(/C(F)=C/c2cc(F)c(F)c([C@]3(C)CS(=O)(=O)N(C)C(N)=N3)c2)cn1 [Example 243, (R,Z)-ethyl 2-((5-(2-(3-(3-amino-2,5-dimethyl-1,1-dioxido-5,6-dihydro-2H-1,2,4-thiadiazin-5-yl)-4,5-difluorophenyl)-1-fluorovinyl)pyrazin-2-yl)oxy)acetate] | 90300 | 398 | – | – | –
Cc1noc(COc2cnc(/C(F)=C/c3cc(F)c(F)c([C@]4(C)CS(=O)(=O)N(C)C(N)=N4)c3)cn2)n1 [Example 224, (R,Z)-3-amino-5-(2,3-difluoro-5-(2-fluoro-2-(5-((3-methyl-1,2,4-oxadiazol-5-yl)methoxy)pyrazin-2-yl)vinyl)phenyl)-2,5-dimethyl-5,6-dihydro-2H-1,2,4-thiadiazine 1,1-dioxide] | 74800 | 421 | – | – | –
Cc1cnc(COc2cnc(/C(F)=C/c3cc(F)c(F)c([C@]4(C)CS(=O)(=O)N(C)C(N)=N4)c3)cn2)o1 [Example 246, (R,Z)-3-amino-5-(2,3-difluoro-5-(2-fluoro-2-(5-((5-methyloxazol-2-yl)methoxy)pyrazin-2-yl)vinyl)phenyl)-2,5-dimethyl-5,6-dihydro-2H-1,2,4-thiadiazine 1,1-dioxide] | 34900 | 111 | – | – | –
Cc1cc(COc2cnc(/C(F)=C/c3cc(F)c(F)c([C@]4(C)CS(=O)(=O)N(C)C(N)=N4)c3)cn2)no1 [Example 223, (R,Z)-3-amino-5-(2,3-difluoro-5-(2-fluoro-2-(5-((5-methylisoxazol-3-yl)methoxy)pyrazin-2-yl)vinyl)phenyl)-2,5-dimethyl-5,6-dihydro-2H-1,2,4-thiadiazine 1,1-dioxide] | 22300 | 210 | – | – | –
C#CCOc1cnc(/C(F)=C/c2ccc(F)c([C@@]3(C)N=C(N)N(C)S(=O)(=O)C3(C)C)c2)cn1 [Example 183, (R,Z)-3-amino-5-(2-fluoro-5-(2-fluoro-2-(5-(prop-2-yn-1-yloxy)pyrazin-2-yl)vinyl)phenyl)-2,5,6,6-tetramethyl-5,6-dihydro-2H-1,2,4-thiadiazine 1,1-dioxide] | – | – | 75 | 13 | –
CN1C(N)=N[C@](C)(c2cc(/C=C(\F)c3cc4nccnc4cn3)ccc2F)CS1(=O)=O [Example 250, (5R)-5-(2-fluoro-5-((Z)-2-fluoro-2-(pyrido[3,4-b]pyrazin-7-yl)ethenyl)phenyl)-2,5-dimethyl-5,6-dihydro-2H-1,2,4-thiadiazin-3-amine 1,1-dioxide] | > 400000 | – | – | – | –
CN1C(N)=N[C@](C)(c2cc(/C=C(\F)c3cnc(OCc4cscn4)cn3)cc(F)c2F)CS1(=O)=O [Example 220, (R,Z)-3-amino-5-(2,3-difluoro-5-(2-fluoro-2-(5-(thiazol-4-ylmethoxy)pyrazin-2-yl)vinyl)phenyl)-2,5-dimethyl-5,6-dihydro-2H-1,2,4-thiadiazine 1,1-dioxide] | 32200 | 66 | – | – | –
CN1C(N)=N[C@](C)(c2cc(/C=C(\F)c3cnc(OCc4ncccn4)cn3)cc(F)c2F)CS1(=O)=O [Example 228, (R,Z)-3-amino-5-(2,3-difluoro-5-(2-fluoro-2-(5-(pyrimidin-2-ylmethoxy)pyrazin-2-yl)vinyl)phenyl)-2,5-dimethyl-5,6-dihydro-2H-1,2,4-thiadiazine 1,1-dioxide] | 39500 | 266 | – | – | –
Cc1csc(COc2cnc(/C(F)=C/c3cc(F)c(F)c([C@]4(C)CS(=O)(=O)N(C)C(N)=N4)c3)cn2)n1 [Example 237, (R,Z)-3-amino-5-(2,3-difluoro-5-(2-fluoro-2-(5-((4-methylthiazol-2-yl)methoxy)pyrazin-2-yl)vinyl)phenyl)-2,5-dimethyl-5,6-dihydro-2H-1,2,4-thiadiazine 1,1-dioxide] | 25400 | 103 | – | – | –
Cc1nc(COc2cnc(/C(F)=C/c3cc(F)c(F)c([C@]4(C)CS(=O)(=O)N(C)C(N)=N4)c3)cn2)c(C)o1 [Example 238, (R,Z)-3-amino-5-(5-(2-(5-((2,5-dimethyloxazol-4-yl)methoxy)pyrazin-2-yl)-2-fluorovinyl)-2,3-difluorophenyl)-2,5-dimethyl-5,6-dihydro-2H-1,2,4-thiadiazine 1,1-dioxide] | 46800 | 94 | – | – | –
CC#CCOc1cnc(/C(F)=C/c2ccc(F)c([C@]3(C)CS(=O)(=O)N(C)C(N)=N3)c2)cn1 [Example 168, (R,Z)-3-amino-5-(5-(2-(5-(but-2-yn-1-yloxy)pyrazin-2-yl)-2-fluorovinyl)-2-fluorophenyl)-2,5-dimethyl-5,6-dihydro-2H-1,2,4-thiadiazine 1,1-dioxide] | 25400 | 10 | – | – | –
Cc1nnc(COc2cnc(/C(F)=C/c3cc(F)c(F)c([C@]4(C)CS(=O)(=O)N(C)C(N)=N4)c3)cn2)o1 [Example 233, (R,Z)-3-amino-5-(2,3-difluoro-5-(2-fluoro-2-(5-((5-methyl-1,3,4-oxadiazol-2-yl)methoxy)pyrazin-2-yl)vinyl)phenyl)-2,5-dimethyl-5,6-dihydro-2H-1,2,4-thiadiazine 1,1-dioxide] | 51700 | 621 | – | – | –
CC1(C)C(N)=N[C@](C)(c2cc(/C=C(\F)c3cnc(OCC4CC4)cn3)ccc2F)CS1(=O)=O [Example 206, (R,Z)-5-amino-3-(5-(2-(5-(cyclopropylmethoxy)pyrazin-2-yl)-2-fluorovinyl)-2-fluorophenyl)-3,6,6-trimethyl-3,6-dihydro-2H-1,4-thiazine 1,1-dioxide] | 74700 | 139 | – | – | –
CN1C(N)=N[C@](C)(c2cc(/C=C(\F)c3cnc(OCc4nccn4C)cn3)cc(F)c2F)CS1(=O)=O [Example 249, (R,Z)-3-amino-5-(2,3-difluoro-5-(2-fluoro-2-(5-((1-methyl-1H-imidazol-2-yl)methoxy)pyrazin-2-yl)vinyl)phenyl)-2,5-dimethyl-5,6-dihydro-2H-1,2,4-thiadiazine 1,1-dioxide] | > 400000 | 1820 | – | – | –
CN1C(N)=N[C@](C)(c2cc(/C=C(\F)c3cnc(OCC4CCC4)cn3)ccc2F)CS1(=O)=O [Example 174, (R,Z)-3-amino-5-(5-(2-(5-(cyclobutylmethoxy)pyrazin-2-yl)-2-fluorovinyl)-2-fluorophenyl)-2,5-dimethyl-5,6-dihydro-2H-1,2,4-thiadiazine 1,1-dioxide] | 22000 | 113 | 1400 | – | –
CC1(C)C(N)=N[C@](C)(c2cc(/C=C(\F)c3cnc(O)cn3)ccc2F)CS1(=O)=O [Example 140, (R,Z)-5-amino-3-(2-fluoro-5-(2-fluoro-2-(5-hydroxypyrazin-2-yl)vinyl)phenyl)-3,6,6-trimethyl-3,6-dihydro-2H-1,4-thiazine 1,1-dioxide] | 177000 | 203 | 241 | – | –
CN1C(N)=N[C@](C)(c2cc(/C=C(\F)c3cnc(C#N)cn3)ccc2F)C(C)(C)S1(=O)=O [Example 181, (R,Z)-5-(2-(3-(3-amino-2,5,6,6-tetramethyl-1,1-dioxido-5,6-dihydro-2H-1,2,4-thiadiazin-5-yl)-4-fluorophenyl)-1-fluorovinyl)pyrazine-2-carbonitrile] | 178000 | 87 | – | – | –
C[C@]1(c2cc(/C=C(/F)C3CCCO3)ccc2F)N=C(N)[C@@]2(CF)CC[C@@H]1S2(=O)=O (stereo partly drawn) [Example 278, (1R,4R,5S)-2-amino-4-(2-fluoro-5-((E)-2-fluoro-2-(tetrahydrofuran-2-yl)vinyl)phenyl)-1-(fluoromethyl)-4-methyl-8-thia-3-azabicyclo[3.2.1]oct-2-ene 8,8-dioxide] | – | – | 1980 | 1110 | –
CC#CCOc1cnc(/C(F)=C/c2cc(F)c(F)c([C@]3(C)CS(=O)(=O)N(C)C(N)=N3)c2)cn1 [Example 165, (R,Z)-3-amino-5-(5-(2-(5-(but-2-yn-1-yloxy)pyrazin-2-yl)-2-fluorovinyl)-2,3-difluorophenyl)-2,5-dimethyl-5,6-dihydro-2H-1,2,4-thiadiazine 1,1-dioxide] | 18200 | 47 | – | – | –
CC1(C)C(N)=N[C@](C)(c2cc(/C=C(\F)c3cnc(Cl)cn3)ccc2F)CS1(=O)=O [Example 159, (R,Z)-5-amino-3-(5-(2-(5-chloropyrazin-2-yl)-2-fluorovinyl)-2-fluorophenyl)-3,6,6-trimethyl-3,6-dihydro-2H-1,4-thiazine 1,1-dioxide] | 143000 | 3 | – | – | –
C=CCOc1cnc(/C(F)=C/c2cc(F)c(F)c([C@]3(C)CS(=O)(=O)N(C)C(N)=N3)c2)cn1 [Example 227, (R,Z)-5-(5-(2-(5-(allyloxy)pyrazin-2-yl)-2-fluorovinyl)-2,3-difluorophenyl)-3-amino-2,5-dimethyl-5,6-dihydro-2H-1,2,4-thiadiazine 1,1-dioxide] | – | – | – | 46 | 427
CN1C(N)=N[C@](C)(c2cc(/C=C(\F)c3cnc(OCc4cocn4)cn3)cc(F)c2F)CS1(=O)=O [Example 225, (R,Z)-3-amino-5-(2,3-difluoro-5-(2-fluoro-2-(5-(oxazol-4-ylmethoxy)pyrazin-2-yl)vinyl)phenyl)-2,5-dimethyl-5,6-dihydro-2H-1,2,4-thiadiazine 1,1-dioxide] | 69800 | 84 | – | – | –
Cc1nc(COc2cnc(/C(F)=C/c3cc(F)c(F)c([C@]4(C)CS(=O)(=O)N(C)C(N)=N4)c3)cn2)no1 [Example 229, (R,Z)-3-amino-5-(2,3-difluoro-5-(2-fluoro-2-(5-((5-methyl-1,2,4-oxadiazol-3-yl)methoxy)pyrazin-2-yl)vinyl)phenyl)-2,5-dimethyl-5,6-dihydro-2H-1,2,4-thiadiazine 1,1-dioxide] | 68200 | 257 | – | – | –
C#C[C@H](C)Oc1cnc(/C(F)=C/c2cc(F)c(F)c([C@]3(C)CS(=O)(=O)N(C)C(N)=N3)c2)cn1 [Example 167, (R)-3-amino-5-(5-((Z)-2-(5-((S)-but-3-yn-2-yloxy)pyrazin-2-yl)-2-fluorovinyl)-2,3-difluorophenyl)-2,5-dimethyl-5,6-dihydro-2H-1,2,4-thiadiazine 1,1-dioxide hydrochloride] | 32500 | 290 | 11 | – | –
